The text below walks through data of article PMC9919490, “Synthesis and Biological Evaluation of Novel Dispiro-Indolinones with Anticancer Activity” (Molecules, 2023).

What all share (type): cell-based
Common to all, as to settings: 48 h

In one data set the test system is LNCaP cells. In words: MTT cytotoxicity assay, LNCaP (p53 pos). The protocol:
(§1) The synthesized compounds were tested for their ability to block the proliferation of the selected model cell lines: LNCaP (p53+), PC3 (p53-), HCT^wt (p53+), and HCT^−/− (p53-) cells. The assay was carried out using the standard MTT (3-(4,5-dimethylthiazol-2-yl)2,5-diphenyl tetrazolium bromide) assay based on the modified approach reported by Ferrari and colleagues. […] Differences in IC50 values against these cell lines were used to assess the selectivity of the compounds.
(§2) Model cell lines were purchased from the in stock collection of the N.N. Blokhin Russian Cancer Research Center (RAMS). Cells were accurately maintained in the recommended media, supplemented with 10% heat-inactivated FBS (Invitrogen) and 2 mmol/L L-glutamine (Invitrogen).
(§3) First, 4000 cells per well were plated out in 140 µL of DMEM (with 10% FBS) in 96-well plates and incubated in 5% CO2 for 24 h at 37 °C without treatment. […] The cells were treated for 48 h with […] (eight dilutions) concentrations of the substances (each in triplicate) or doxorubicin (0.3 nM–600 nM, eight dilutions) as a control substance. After the incubation, 15 µL of MTT solution in PBS (5 mg/mL) was added, and the cells were incubated for 2 h, followed by removal of the media and addition of 120 µL of DMSO. […] Cell survival rates were determined by the comparison of optical density with the corresponding untreated control cell culture. Dose-dependent curves and the corresponding IC50 values were calculated using “GraphPad Prism 6” software (GraphPad Software, Inc., San Diego, CA, USA).

A further data set deals with PC3 cells. In words: MTT cytotoxicity assay, PC3 (p53 neg). As to the method:
as §1, §2, §3
On the technique in general: Tetrazolium assays rely on reduction of a dye to a coloured formazan, in cell work by metabolically active cells.

The next data set concerns HCT^wt cells. In words: MTT cytotoxicity assay, HCT^wt (p53 pos). The protocol:
as §1, §2, §3

In a further data set the test system is HCT^−/− cells. The data set is described as follows: MTT cytotoxicity assay, HCT^−/− (p53 neg). As to the method: as §1, §2, §3

On to `CC(c1ccccc1)N1C(=O)C2(NC1=S)C(c1ccccc1Cl)CN(C)C21C(=O)Nc2ccc(Br)cc21` (mixture of isomers) [Compound 62], for which the half-maximal inhibitory concentration (IC50) in the data set on LNCaP cells, in the data set with PC3 cells, in the data set on HCT^wt cells and in the data set on HCT^−/− cells was greater than 100 µM throughout.
For `CC(c1ccccc1)N1C(=O)C2(NC1=S)C(c1cccc(Cl)c1)CN(C)C21C(=O)Nc2ccc(Br)cc21` (mixture of isomers) [Compound 63], the half-inhibitory concentration (IC50) with LNCaP cells was 3.4 ± 1.5 µM; in the data set on PC3 cells it was 8.8 ± 3.1 µM; with HCT^wt cells, 8 ± 2.5 µM; in the data set with HCT^−/− cells it was greater than 100 µM.
Turning to `CC(c1ccccc1)N1C(=O)C2(NC1=S)C(c1ccccc1Cl)CN(C)C21C(=O)Nc2ccc(Cl)cc21` (mixture of isomers) [Compound 64], the IC50 is greater than 100 µM with LNCaP cells, greater than 100 µM with PC3 cells, 24 ± 6.7 µM in the data set on HCT^wt cells and greater than 100 µM in the data set on HCT^−/− cells.
Take `CC(c1ccccc1)N1C(=O)C2(NC1=S)C(c1ccc(Cl)cc1)CN(C)C21C(=O)Nc2ccc(Br)cc21` (mixture of isomers) [Compound 65]: the IC50 with LNCaP cells, in the data set on PC3 cells, in the data set with HCT^wt cells and in the data set on HCT^−/− cells was greater than 100 µM in each case.
Turning to `CC(c1ccccc1)N1C(=O)C2(NC1=S)C(c1ccc(Cl)cc1)CN(C)C21C(=O)Nc2ccc(Cl)cc21` (mixture of isomers) [Compound 66], the IC50 with LNCaP cells, with PC3 cells, in the data set on HCT^wt cells and in the data set on HCT^−/− cells was greater than 100 µM throughout.
For `CN1C[C@H](c2ccccc2)[C@]2(NC(=S)N(c3ccccc3)C2=O)[C@]12C(=O)Nc1ccc(Br)cc12` (racemic) [Compound 5], the IC50 in the data set on LNCaP cells was 2.2 ± 0.8 µM; in the data set with PC3 cells, 4.6 ± 2.5 µM; with HCT^wt cells, 10.5 ± 2.3 µM; with HCT^−/− cells, 12.5 ± 3.2 µM.
For `CN1C[C@H](c2ccccc2Br)[C@]2(NC(=S)N(c3ccccc3)C2=O)[C@]12C(=O)Nc1ccccc12` (racemic) [Compound 8], the half-inhibitory concentration (IC50) with LNCaP cells, in the data set on PC3 cells, with HCT^wt cells and in the data set with HCT^−/− cells was greater than 100 µM in each case.
On to `CN1C[C@H](c2ccccc2Cl)[C@]2(NC(=S)N(c3ccccc3)C2=O)[C@]12C(=O)Nc1ccccc12` (racemic) [Compound 9], for which the IC50 is greater than 100 µM in the data set on LNCaP cells, greater than 100 µM with PC3 cells, 21.7 ± 5.8 µM with HCT^wt cells and 23.1 ± 6.6 µM with HCT^−/− cells.
Regarding `CN1C[C@H](c2ccccc2Cl)[C@]2(NC(=S)N(c3ccccc3)C2=O)[C@]12C(=O)Nc1ccc(Br)cc12` (racemic) [Compound 10], the IC50 in the data set with LNCaP cells and with PC3 cells was greater than 100 µM each time.
As to `CN1C[C@H](c2ccccc2Cl)[C@]2(NC(=S)N(c3ccccc3)C2=O)[C@]12C(=O)Nc1ccc(Cl)cc12` (racemic) [Compound 11], the concentration for half-maximal inhibition (IC50) with LNCaP cells, in the data set on PC3 cells, with HCT^wt cells and with HCT^−/− cells was greater than 100 µM throughout.
With `CN1C[C@H](c2ccc(Cl)cc2)[C@]2(NC(=S)N(c3ccccc3)C2=O)[C@]12C(=O)Nc1ccc(Cl)cc12` (racemic) [Compound 12], the IC50 in the data set on LNCaP cells, with PC3 cells, in the data set with HCT^wt cells and with HCT^−/− cells was greater than 100 µM throughout.
Turning to `CN1C[C@H](c2cccc(Cl)c2)[C@]2(NC(=S)N(c3ccccc3)C2=O)[C@]12C(=O)Nc1ccccc12` (racemic) [Compound 14], the IC50 with LNCaP cells and with PC3 cells was greater than 100 µM each time.
As for `CN1C[C@H](c2cccc(Cl)c2)[C@]2(NC(=S)N(c3ccccc3)C2=O)[C@]12C(=O)Nc1ccc(Br)cc12` (racemic) [Compound 15], the concentration for half-maximal inhibition (IC50) with LNCaP cells, in the data set on PC3 cells, with HCT^wt cells and in the data set on HCT^−/− cells was greater than 100 µM in each case.
In the case of `CN1C[C@H](c2ccc(Cl)c(Cl)c2)[C@]2(NC(=S)N(c3ccccc3)C2=O)[C@]12C(=O)Nc1ccc(Br)cc12` (racemic) [Compound 16], the IC50 in the data set with LNCaP cells is greater than 100 µM; in the data set on PC3 cells it was greater than 100 µM; with HCT^wt cells, 7.6 ± 1.6 µM; in the data set with HCT^−/− cells, 8.8 ± 3.5 µM.
In the case of `CN1C[C@H](c2ccccn2)[C@]2(NC(=S)N(c3ccccc3)C2=O)[C@]12C(=O)Nc1ccc(Br)cc12` (racemic) [Compound 17], the 50% inhibitory concentration (IC50) with LNCaP cells is greater than 100 µM; in the data set with PC3 cells, greater than 100 µM; in the data set with HCT^wt cells, 5.6 ± 2.3 µM; with HCT^−/− cells it was 7.6 ± 3.2 µM.
As for `CN1C[C@H](c2ccccn2)[C@]2(NC(=S)N(c3ccccc3)C2=O)[C@]12C(=O)Nc1ccc(Cl)cc12` (racemic) [Compound 18], the IC50 is 2.1 ± 0.3 µM with LNCaP cells, 8.2 ± 3.5 µM in the data set with PC3 cells, 60.1 ± 8.6 µM with HCT^wt cells and greater than 100 µM in the data set on HCT^−/− cells.
With `CN1C[C@H](c2ccncc2)[C@]2(NC(=S)N(c3ccccc3)C2=O)[C@]12C(=O)Nc1ccccc12` (racemic) [Compound 19], the concentration for half-maximal inhibition (IC50) in the data set on LNCaP cells, in the data set with PC3 cells, in the data set on HCT^wt cells and with HCT^−/− cells was greater than 100 µM each time.
Consider `CN1C[C@H](c2ccncc2)[C@]2(NC(=S)N(c3ccccc3)C2=O)[C@]12C(=O)Nc1ccc(Br)cc12` (racemic) [Compound 20], for which the IC50 in the data set on LNCaP cells, in the data set with PC3 cells, in the data set with HCT^wt cells and with HCT^−/− cells was greater than 100 µM throughout.
In the case of `CN1C[C@H](c2ccncc2)[C@]2(NC(=S)N(c3ccccc3)C2=O)[C@]12C(=O)Nc1ccc(Cl)cc12` (racemic) [Compound 21], the IC50 in the data set on LNCaP cells is greater than 100 µM; with PC3 cells, greater than 100 µM; in the data set with HCT^wt cells it was 50.5 ± 10.2 µM; with HCT^−/− cells, greater than 100 µM.
Turning to `CN1C[C@H](c2cccc(Cl)c2)[C@]2(NC(=S)N(c3ccccc3)C2=O)[C@]12C(=O)Nc1ccc(Cl)cc12` (racemic) [Compound 23], the IC50 in the data set on LNCaP cells is greater than 100 µM; with PC3 cells it was greater than 100 µM; in the data set on HCT^wt cells it was 50.7 ± 8.9 µM; in the data set on HCT^−/− cells it was 50.7 ± 12.6 µM.
Regarding `CN1C[C@H](c2cccc(C=O)c2)[C@]2(NC(=S)N(c3ccccc3)C2=O)[C@]12C(=O)Nc1ccc(Cl)cc12` (racemic) [Compound 24], the half-maximal inhibitory concentration (IC50) in the data set with LNCaP cells, in the data set on PC3 cells, with HCT^wt cells and in the data set with HCT^−/− cells was greater than 100 µM throughout.
Turning to `CN1C[C@H](C2CCCCC2)[C@]2(NC(=S)N(c3ccccc3)C2=O)[C@]12C(=O)Nc1ccccc12` (racemic) [Compound 25], the half-maximal inhibitory concentration (IC50) in the data set with LNCaP cells and with PC3 cells was greater than 100 µM in each case.
As for `CN1C[C@H](C2CCCCC2)[C@]2(NC(=S)N(c3ccccc3)C2=O)[C@]12C(=O)Nc1ccc(Br)cc12` (racemic) [Compound 26], the 50% inhibitory concentration (IC50) in the data set on LNCaP cells and with PC3 cells was greater than 100 µM in each case.
Turning to `CCOc1ccc(N2C(=O)[C@]3(NC2=S)[C@@H](c2ccc(Cl)c(Cl)c2)CN(C)[C@@]32C(=O)Nc3ccccc32)cc1` (racemic) [Compound 27], the half-inhibitory concentration (IC50) in the data set on LNCaP cells, with PC3 cells, with HCT^wt cells and in the data set on HCT^−/− cells was greater than 100 µM throughout.
Take `CCOc1ccc(N2C(=O)[C@]3(NC2=S)[C@@H](c2ccc(Cl)cc2)CN(C)[C@@]32C(=O)Nc3ccccc32)cc1` (racemic) [Compound 28]: the IC50 with LNCaP cells, in the data set on PC3 cells, in the data set on HCT^wt cells and in the data set with HCT^−/− cells was greater than 100 µM throughout.
With `COc1ccc([C@H]2CN(C)[C@@]3(C(=O)Nc4ccc(Br)cc43)[C@@]23NC(=S)N(c2ccc(F)c(Cl)c2)C3=O)cc1OC` (racemic) [Compound 45], the IC50 in the data set on LNCaP cells and in the data set with PC3 cells was greater than 100 µM in each case.
On to `COc1ccc(N2C(=O)[C@]3(NC2=S)[C@@H](c2cccc(Cl)c2)CN(C)[C@@]32C(=O)Nc3ccccc32)cc1Cl` (racemic) [Compound 58], for which the concentration for half-maximal inhibition (IC50) with LNCaP cells and in the data set on PC3 cells was greater than 100 µM in each case.
Consider `COc1ccc(N2C(=O)[C@]3(NC2=S)[C@@H](c2cccc(Cl)c2)CN(C)[C@@]32C(=O)Nc3ccc(Br)cc32)cc1Cl` (racemic) [Compound 59], for which the IC50 in the data set on LNCaP cells and with PC3 cells was greater than 50 µM each time.
With `CCOc1ccc([C@H]2CN(C)[C@@]3(C(=O)Nc4ccccc43)[C@@]23NC(=S)N(c2ccc(F)cc2)C3=O)cc1` (racemic) [Compound 60], the IC50 in the data set on LNCaP cells and in the data set on PC3 cells was greater than 100 µM in each case.
With `CCOc1ccc([C@H]2CN(C)[C@@]3(C(=O)Nc4ccc(Br)cc43)[C@@]23NC(=S)N(c2ccc(F)cc2)C3=O)cc1` (racemic) [Compound 61], the IC50 in the data set on LNCaP cells and in the data set with PC3 cells was greater than 100 µM throughout.
In the case of `C=CCN1C(=O)[C@]2(NC1=S)[C@@H](c1ccccn1)CN(C)[C@@]21C(=O)Nc2ccccc21` (racemic) [Compound 67], the IC50 in the data set with LNCaP cells and with PC3 cells was greater than 50 µM each time.
For `C=CCN1C(=O)[C@]2(NC1=S)[C@@H](c1cccc(Cl)c1)CN(C)[C@@]21C(=O)Nc2ccccc21` (racemic) [Compound 68], the 50% inhibitory concentration (IC50) with LNCaP cells and in the data set with PC3 cells was greater than 50 µM throughout.

Broadly, the IC50 is the concentration that inhibits the measured activity by half. High values mean weaker potency in that assay, low ones greater potency in that assay.
